ChEMBL document CHEMBL5143612, “Antibacterial activity evaluation of vinyl sulfones against global predominant methicillin-resistant Staphylococcus aureus USA300” (Bioorg Med Chem Lett, 2022)
≈ marks a conversion by molar mass, not a printed value. Calls of active or inactive are those of the source. The rule behind the calls is not given here.

Columns and labels:
Format in all cases: functional
Staphylococcus aureus [1] = assay: Antibacterial activity against community-associated methicillin-resistant Staphylococcus aureus USA300 SF8300 assessed as inhibition of bacterial growth by measuring zone of inhibition at 30 ug incubated for 18 to 20 hrs by CLSI based disk diffusion analysis; details: time 18-20 hrs, read-out: DIZ
Pseudomonas aeruginosa [2] = assay: Antibacterial activity against Pseudomonas aeruginosa assessed as inhibition of bacterial growth by measuring zone of inhibition at 30 ug incubated for 18 to 20 hrs by CLSI based disk diffusion analysis; details: time 18-20 hrs, read-out: DIZ
Staphylococcus aureus [3] = assay: Antibacterial activity against methicillin-susceptible Staphylococcus aureus ATCC 25923 assessed as inhibition of bacterial growth by measuring zone of inhibition at 30 ug incubated for 18 to 20 hrs by CLSI based disk diffusion analysis; details: time 18-20 hrs, read-out: DIZ
Staphylococcus aureus [4] = assay: Antibacterial activity against community-associated methicillin-resistant Staphylococcus aureus USA300 SF8300 assessed as inhibition of bacterial growth incubated for 18 to 20 hrs by CLSI based microdilution susceptibility analysis; details: time 18-20 hrs
Staphylococcus aureus [5] = assay: Bactericidal activity against community-associated methicillin-resistant Staphylococcus aureus USA300 SF8300 assessed as inhibition of bacterial growth incubated for 18 to 20 hrs by CLSI based microdilution susceptibility analysis; details: time 18-20 hrs
Staphylococcus aureus [6] = assay: Antibacterial activity against methicillin-susceptible Staphylococcus aureus ATCC 29213 assessed as inhibition of bacterial growth incubated for 18 to 20 hrs by CLSI based microdilution susceptibility analysis; details: time 18-20 hrs
Staphylococcus aureus [7] = assay: Bactericidal activity against methicillin-susceptible Staphylococcus aureus ATCC 29213 assessed as inhibition of bacterial growth incubated for 18 to 20 hrs by CLSI based microdilution susceptibility analysis; details: time 18-20 hrs
Pseudomonas aeruginosa [8] = assay: Antibacterial activity against Pseudomonas aeruginosa assessed as inhibition of bacterial growth incubated for 18 to 20 hrs by CLSI based microdilution susceptibility analysis; details: time 18-20 hrs
Staphylococcus aureus [9] = assay: Inhibition of methicillin-susceptible Staphylococcus aureus ATCC 29213 bacterial cell adhesion to fibronectin at 0.1 mg/ml followed by compound addition on fibronectin precoated plate measured after 2 hrs by crystal violet dye based analysis
Pseudomonas aeruginosa [10] = assay: Bactericidal activity against Pseudomonas aeruginosa assessed as inhibition of bacterial growth incubated for 18 to 20 hrs by CLSI based microdilution susceptibility analysis; details: time 18-20 hrs

SMILES | zone of inhibition at 30 µg/disc (Staphylococcus aureus [1]) [mm] | zone of inhibition at 30 µg/disc (Pseudomonas aeruginosa [2]) [mm] | zone of inhibition at 30 µg/disc (Staphylococcus aureus [3]) [mm] | MIC (Staphylococcus aureus [4]) [µg/mL] | MBC (Staphylococcus aureus [5]) [µg/mL] | MIC (Staphylococcus aureus [6]) [µg/mL] | MBC (Staphylococcus aureus [7]) [µg/mL] | MIC (Pseudomonas aeruginosa [8]) [µg/mL] | inhibition (Staphylococcus aureus [9]) | MBC (Pseudomonas aeruginosa [10]) [µg/mL]
C/C(C#N)=C\S(=O)(=O)c1ccc(C)cc1 | 11.3 | 6 | 6 | 30 (≈ 136 µM) | 120 (≈ 542 µM) | – | – | – | – | –
Cc1ccc(S(=O)(=O)/C=C/COCc2ccccc2)cc1 | 6 | 6 | 8.3 | – | – | > 120 | > 120 | – | – | –
N#C/C=C\S(=O)(=O)c1ccc(Br)cc1 | 23.4 | 13.8 | 22.6 | 60 (≈ 220 µM) | 120 (≈ 441 µM) | 30 (≈ 110 µM) | 30 (≈ 110 µM) | 60 (≈ 220 µM) | Active | > 120
Cc1ccc(S(=O)(=O)/C=C/C(=O)O)cc1 | 6 | 6 | 9.94 | – | – | > 120 | > 120 | – | – | –
Cc1ccc(S(=O)(=O)/C=C/Cc2ccccc2)cc1 | 6 | 6 | 6 | – | – | – | – | – | – | –
C/C(=C/C#N)S(=O)(=O)c1ccc(C)cc1 | 23.6 | 6 | 23.6 | 7.5 (≈ 33.9 µM) | 15 (≈ 67.8 µM) | 7.5 (≈ 33.9 µM) | 7.5 (≈ 33.9 µM) | – | – | –
COC(=O)/C(C)=C/S(=O)(=O)c1ccc(C)cc1 | 6 | 6 | 6 | – | – | – | – | – | – | –
N#C/C=C\S(=O)(=O)c1ccc(Cl)cc1 | 6 | 16.3 | 20 | – | – | 7.5 (≈ 32.9 µM) | 60 (≈ 264 µM) | 60 (≈ 264 µM) | Active | 60 (≈ 264 µM)
N#C/C=C\S(=O)(=O)c1ccccc1 | 6 | 14.1 | 22.3 | – | – | 15 (≈ 77.6 µM) | 30 (≈ 155 µM) | 60 (≈ 311 µM) | Active | 120 (≈ 621 µM)
Cc1ccc(S(=O)(=O)/C=C/C(N)=O)cc1 | 6 | 6 | 22 | – | – | 60 (≈ 266 µM) | 60 (≈ 266 µM) | – | – | –
COC(=O)/C=C/S(=O)(=O)c1ccc(C)cc1 | 18.7 | 10.6 | 20.6 | 15 (≈ 62.4 µM) | 120 (≈ 499 µM) | 7.5 (≈ 31.2 µM) | 120 (≈ 499 µM) | > 120 | – | > 120
C/C(=C\C#N)S(=O)(=O)c1ccc(C)cc1 | 6 | 6 | 16.2 | – | – | 60 (≈ 271 µM) | 60 (≈ 271 µM) | – | – | –
N#C/C=C/S(=O)(=O)c1ccc(Cl)cc1 | 25.5 | 13.9 | 22.8 | 7.5 (≈ 32.9 µM) | 60 (≈ 264 µM) | 1.88 (≈ 8.24 µM) | 15 (≈ 65.9 µM) | 60 (≈ 264 µM) | Active | 120 (≈ 527 µM)
O=S(=O)(/C=C/CCCBr)c1ccc(Br)cc1 | 6 | 6 | 6 | – | – | – | – | – | – | –
CCCCOC(=O)/C=C/S(=O)(=O)c1ccc(C)cc1 | 15.1 | 6 | 13.9 | 60 (≈ 212 µM) | > 120 | 7.5 (≈ 26.6 µM) | 120 (≈ 425 µM) | – | – | –
COc1ccc(S(=O)(=O)/C=C\C#N)cc1 | 24.7 | 14.2 | 24.5 | 15 (≈ 67.2 µM) | 60 (≈ 269 µM) | 3.75 (≈ 16.8 µM) | 60 (≈ 269 µM) | 120 (≈ 538 µM) | Active | 120 (≈ 538 µM)
O=[N+]([O-])c1ccc(S(=O)(=O)/C=C/CCCBr)cc1 | 6 | 6 | 6 | – | – | – | – | – | – | –
Cc1ccc(S(=O)(=O)C/C=C\Oc2ccccc2)cc1 | 6 | 6 | 6 | – | – | – | – | – | – | –
N#C/C=C/S(=O)(=O)c1ccccc1 | 25.2 | 14.1 | 22.6 | 7.5 (≈ 38.8 µM) | 60 (≈ 311 µM) | 1.88 (≈ 9.7 µM) | 30 (≈ 155 µM) | 60 (≈ 311 µM) | Active | 60 (≈ 311 µM)
Cc1ccc(S(=O)(=O)/C=C/c2ccc(Cl)cc2)cc1 | 6 | 6 | 6 | – | – | – | – | – | – | –
Cc1ccc(S(=O)(=O)/C=C/CCCBr)cc1 | 6 | 6 | 6 | – | – | – | – | – | – | –
N#C/C=C/S(=O)(=O)c1ccc(Br)cc1 | 25.7 | 12.9 | 24.7 | 15 (≈ 55.1 µM) | 60 (≈ 220 µM) | 7.5 (≈ 27.6 µM) | 15 (≈ 55.1 µM) | 120 (≈ 441 µM) | Active | > 120
COc1ccc(S(=O)(=O)/C=C/C#N)cc1 | 25.9 | 13.3 | 26.9 | 3.75 (≈ 16.8 µM) | 30 (≈ 134 µM) | 1.88 (≈ 8.4 µM) | 30 (≈ 134 µM) | > 120 | Active | > 120
Cc1ccc(/C=C/S(=O)(=O)c2ccc(C)cc2)cc1 | 6 | 6 | 6 | – | – | – | – | – | – | –
Cc1ccc(S(=O)(=O)/C=C/C(=O)OC(C)(C)C)cc1 | 16.7 | 6 | 14.9 | 30 (≈ 106 µM) | 60 (≈ 212 µM) | 7.5 (≈ 26.6 µM) | 120 (≈ 425 µM) | – | – | –
CCS(=O)(=O)c1ccc(C)cc1 | 6 | 6 | 6 | – | – | – | – | – | – | –
N#C/C=C/S(=O)(=O)c1ccc([N+](=O)[O-])cc1 | 6 | 13.1 | 21.1 | – | – | 30 (≈ 126 µM) | 60 (≈ 252 µM) | 120 (≈ 504 µM) | Active | 120 (≈ 504 µM)
